21 compounds from US8815909B2, “Diaminocyclohexane compounds and uses thereof” (Bristol-Myers Squibb Company, priority 2011, dated 2014) can be followed below.

Structures are written as SMILES. pEC50: −log10 of the molar value.

In one experiment the target is T1, human Y4 receptor (Homo sapiens, UniProt P50391).
T1 construct: expressed in transfected cells
T1 sequence (P50391 whole entry): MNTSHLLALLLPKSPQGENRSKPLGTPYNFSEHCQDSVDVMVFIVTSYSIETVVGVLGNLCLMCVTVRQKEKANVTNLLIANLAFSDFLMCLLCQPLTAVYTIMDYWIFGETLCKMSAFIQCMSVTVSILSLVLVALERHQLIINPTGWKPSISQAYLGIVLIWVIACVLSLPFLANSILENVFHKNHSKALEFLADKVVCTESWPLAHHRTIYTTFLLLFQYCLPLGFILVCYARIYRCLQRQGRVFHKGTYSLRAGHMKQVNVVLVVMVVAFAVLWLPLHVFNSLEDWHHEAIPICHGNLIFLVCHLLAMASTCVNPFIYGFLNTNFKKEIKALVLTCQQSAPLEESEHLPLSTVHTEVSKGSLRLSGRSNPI
In words: NPY4 cAMP HTRF Agonist Assay (inhibitory cAMP assay, Gi activation by Y4 agonism). It counts as cell-based. Particulars: TABLE 2, R2 is Phenyl-CN; read-out: hY4 CAMP EC50. Here is the method:
NPY4 cAMP HTRF Agonist Assay
The functionality of the compound at Y4 receptor was analyzed using a inhibitory cAMP assay (CISBIO, HTRF cAMP kit #62AM4PEC) to measure the Gi activation by Y4 agonism.
The human Y4 stable CHO clonal cells were maintained in culture medium (F-12 containing 10% Fetal Bovine Serum, […] GENETICIN®, […] Zeocin). Before the experiment, 5 μL of 1 uM Forskolin (Sigma, # F6886) and 100 uM IBMX (Sigma, # I5879) in PBS buffer were added into 384-well plates (PE, Proxi-plate) that were pre-dotted with 100 nL compounds. The cells were removed from the flasks by Cellstripper, counted and adjusted to 1.0×10^6 cells/mL in PBS buffer, and added 5 μL/well (5000 cells/well) into the above 384-well plates. The cells were then covered and incubated for 30 minutes at room temperature. After incubation, 5 μL/well of D2-conjugate in HTRF lysis buffer was first added, followed by adding 5 μL/well of anti-cAMP Cryptate in HTRF lysis buffer. The plates were incubated for another 1 hour at room temperature and read on the EnVision Multilabel Plate Reader.
Compounds described herein were tested in the above assay.
Background: TR-FRET usually uses a lanthanide donor and a delayed reading to cut background.
The pEC50 is −log10 of the EC50, conventionally taken in molar units. For `CC(=O)c1cccc(-c2ccnc(N[C@@H]3CCCC[C@H]3N[C@H]3CCCN(c4ccc(C#N)cc4)C3)c2)c1` [Example 257], the pEC50 is 7.00.
On the same count and under the same terms, to `N#Cc1ccc(N2CCC[C@H](N[C@@H]3CCCC[C@H]3Nc3cc(Cc4ccccc4)ccn3)C2)cc1` [Example 245] belongs 6.52.

The same experiment, now with this note: TABLE 5, R2 is Pyridinyl-CF3; read-out: hY4 CAMP EC50.
Consider `C[C@]1(N[C@@H]2CCCC[C@H]2Nc2cc(-c3cccc(C(N)=O)c3)ccn2)CCCN(c2ccc(C(F)(F)F)cn2)C1` [Example 332], for which the pEC50 was 7.62.

Staying with this experiment, now noted: human Y4 receptor, cAMP; read-out: hY4 CAMP EC50.
With `COC(=O)Nc1cccc(-c2ccnc(N[C@@H]3CCCC[C@H]3N[C@H]3CCCN(c4ccc(-c5ncn(C)n5)cc4)C3)c2)c1` [Example 455], the pEC50 is 8.70.
`Fc1ccc(-c2cnc(N[C@@H]3CCCC[C@H]3N[C@H]3CCCN(c4cnc(C(F)(F)F)nc4)C3)o2)c(F)c1` [Example 403]: the pEC50 is 6.58.
Same read-out and setting: under `COC(=O)Nc1cccc(-c2ccnc(N[C@@H]3CCCC[C@H]3N[C@H]3CCCN(c4ccc(Br)cc4)C3)c2)c1` [Example 513] stands 8.70; under `C[C@]1(N[C@@H]2CCCC[C@H]2Nc2cc(-c3cccc(C(N)=O)c3)ccn2)CCCN(c2ncc(C(F)(F)F)cn2)C1` [Example 400], 7.55.
As for `C[C@]1(N[C@@H]2CCCC[C@H]2Nc2cc(-c3cccc(C(N)=O)c3)ccn2)CCCN(c2cnc(C(F)(F)F)cn2)C1` [Example 474], the pEC50 was 6.85.
For the compound `N#Cc1cnc(N2CCCC(N[C@@H]3CCCC[C@H]3Nc3ncc(-c4cccc(C(N)=O)c4)o3)C2)nc1` (stereo partly drawn) [Example 437], the pEC50 was 7.46.
Turning to `Cc1nc2ccc(N3CCC[C@H](N[C@@H]4CCCC[C@H]4Nc4cc(-c5cccc(C(N)=O)c5)ccn4)C3)cn2n1` [Example 491], the pEC50 is 7.66.
For the compound `Cc1nc2ccc(N3CCC[C@H](N[C@@H]4CCCC[C@H]4Nc4ncc(-c5ccc(F)c(F)c5)o4)C3)cn2n1` [Example 492], the pEC50 is 7.42.
On the same count and under the same terms, to `N#Cc1ncc(N2CCC[C@H](N[C@@H]3CCCC[C@H]3Nc3ncc(-c4cccc(C(N)=O)c4)o3)C2)cn1` [Example 438] belongs 8.30.
On the same count and under the same terms, to `Cc1nnc(-c2ccc(N3CCC[C@H](N[C@@H]4CCCC[C@H]4Nc4cc(-c5cccc(C(N)=O)c5)ccn4)C3)cc2)o1` [Example 349] belongs 9.00; to `Cc1nc(-c2ccc(N3CCC[C@H](N[C@@H]4CCCC[C@H]4Nc4cc(-c5cccc(C(N)=O)c5)ccn4)C3)cc2)no1` [Example 347], 9.70.
Same read-out and setting: to `N#Cc1ccc(N2CCCC(N[C@@H]3CCCC[C@H]3Nc3ncc(-c4cccc(C(N)=O)c4)o3)C2)nn1` (stereo partly drawn) [Example 479] belongs 6.48.

The experiment is the same for the next values; noted with them: human Y4 stable CHO clonal cells, forskolin + IBMX; read-out: NPY4 cAMP HTRF Agonist Assay EC50.
`O=[N+]([O-])c1ccc(N2CCC[C@H](N[C@@H]3CCCC[C@H]3Nc3ncc(-c4ccc(F)cc4)o3)C2)cc1` [Example 18, (1R,2R)—N1-(5-(4-Fluorophenyl)oxazol-2-yl)-N2-((S)-1-(4-nitrophenyl)piperidin-3-yl)cyclohexane-1,2-diamine]: the pEC50 was 8.15.
As to `NC(=O)c1cccc(-c2cnc(N[C@@H]3CCCC[C@H]3N[C@H]3CCCN(c4cnc(C(F)(F)F)nc4)C3)o2)c1` [Example 97, 3-(2-(((1R,2R)-2-(((S)-1-(2-(trifluoromethyl)pyrimidin-5-yl)piperidin-3-yl)amino)cyclohexyl)amino)oxazol-5-yl)benzamide], the negative-log EC50 (pEC50) was 8.22.

Staying with this experiment, now noted: second TABLE 1, R2 is Phenyl-CF3; read-out: hY4 CAMP EC50.
Consider `COC(=O)c1cccc(-c2cnc(N[C@@H]3CCCC[C@H]3N[C@H]3CCCN(c4ccc(C(F)(F)F)cc4)C3)o2)c1` [Example 115], for which the pEC50 was 7.17.
On the same count and under the same terms, to `FC(F)(F)c1ccc(N2CCC[C@H](N[C@@H]3CCCC[C@H]3Nc3cc(-c4cc[nH]c4)ccn3)C2)cc1` [Example 198] belongs 7.17; to `OCC#Cc1ccnc(N[C@@H]2CCCC[C@H]2N[C@H]2CCCN(c3ccc(C(F)(F)F)cc3)C2)c1` [Example 163], 7.13; to `O=C(NC1CCCC1)c1cccc(-c2ccnc(N[C@@H]3CCCC[C@H]3N[C@H]3CCCN(c4ccc(C(F)(F)F)cc4)C3)c2)c1` [Example 150], 6.72.
